Test results published in US10597388B2, “Pyridazinone herbicides” (FMC CORPORATION, priority 2014, dated 2020).

Experiments:
Type in all cases: in vivo
[1] = test system: chamomile (scentless chamomile, Matricaria inodora); assay: Test D controlled growth environment herbicide test, pre- and postemergence
Method in brief: (§1)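 Rating is visual, 0–100 scale (100 = complete control), made against untreated plants 14–21 d after treatment in controlled growth conditions. Postemergence sprays went onto 1- to 4-leaf plants in peat medium; preemergence sprays onto silt loam after sowing; formulation included a surfactant.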

[2] = test system: lambsquarters (Chenopodium album); assay: as above
Method in brief: as §1

[3] = test system: deadnettle (henbit deadnettle, Lamium amplexicaule); assay: as above
Method in brief: as §1

[4] = test system: barley, winter (winter barley, Hordeum vulgare); assay: as above
Method in brief: as §1

[5] = test system: blackgrass (Alopecurus myosuroides); assay: as above
Method in brief: as §1

[6] = test system: radish, wild (wild radish, Raphanus raphanistrum); assay: as above
Method in brief: as §1

[7] = test system: mustard, wild (wild mustard, Sinapis arvensis); assay: as above
Method in brief: as §1

[8] = test system: field poppy (Papaver rhoeas); assay: as above
Method in brief: as §1

[9] = test system: foxtail, green (green foxtail, Setaria viridis); assay: as above
Method in brief: as §1

[10] = test system: windgrass (Apera spica-venti); assay: as above
Method in brief: as §1

[11] = test system: waterhemp_RES1 (ALS & Triazine resistant common waterhemp, Amaranthus rudis); assay: Test E greenhouse herbicide test, postemergence
Method in brief: (§2)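 Visual injury scored 0 (no effect) to 100 (complete control) versus untreated plants, 14 to 21 d after treatment in the greenhouse. Plants were treated postemergence at 1- to 4-leaf stage, 2–18 cm height, in peat-moss/vermiculite medium.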

[12] = test system: waterhemp_RES2 (ALS & HPPD resistant common waterhemp, Amaranthus rudis); assay: Test E greenhouse herbicide test, postemergence
Method in brief: as §2

[13] = Postemergence, 31 g ai/ha, scale 0 to 100 (0 no effect, 100 complete control)
[14] = Postemergence, 125 g ai/ha, visual rating on scale 0 (no effect) to 100 (complete control), 14 to 21 d
[15] = Postemergence, 250 g ai/ha, scale 0 to 100 (0 no effect, 100 complete control)
[16] = postemergence, 62 g ai/ha, scale 0 to 100, 0 no effect, 100 complete control
[17] = Preemergence, 62 g ai/ha, scale 0 to 100 (0 no effect, 100 complete control)
[18] = Preemergence, 125 g ai/ha, scale 0 to 100 (0 no effect, 100 complete control)
[19] = Preemergence, 250 g ai/ha, scale 0 to 100, 0 no effect, 100 complete control
[20] = 31 g ai/ha, visual, scale 0 no effect to 100 complete control
[21] = 62 g ai/ha, scale 0 to 100 (0 no effect, 100 complete control)
[22] = 125 g ai/ha, scale 0 to 100 (0 no effect, 100 complete control)
[23] = 250 g ai/ha, scale 0 to 100 (0 no effect, 100 complete control)

## Cc1nn(C)c(=O)c(-c2ccc(Br)c3ccccc23)c1O [Compound 75]
[1]; [13]
  Chamomile plant response rating: 80
[1]; [14]
  Plant response rating, Chamomile: 85
[1]; [15]
  Plant response rating, Chamomile: 100
[1]; [16]
  Plant response rating, Chamomile: 90
[2]; [13]
  Lambsquarters plant response rating: 100
[2]; [14]
  Plant response rating, Lambsquarters: 100
[2]; [15]
  Plant response rating, Lambsquarters: 100
[2]; Preemergence, 31 g ai/ha
  Plant response rating (scale of 0 to 100), Lambsquarters: 95
[2]; [17]
  Plant response rating, Lambsquarters: 95
[2]; [18]
  Plant response rating, Lambsquarters: 100
[2]; [19]
  Plant response rating, Lambsquarters: 100
[2]; [16]
  Plant response rating, Lambsquarters: 100
[3]; [13]
  Deadnettle plant response rating: 75
[3]; [14]
  Plant response rating, Deadnettle: 95
[3]; [15]
  Plant response rating, Deadnettle: 100
[3]; Preemergence, 31 g ai/ha
  Plant response rating (scale of 0 to 100), Deadnettle: 30
[3]; [17]
  Plant response rating, Deadnettle: 55
[3]; [18]
  Plant response rating, Deadnettle: 90
[3]; [19]
  Plant response rating, Deadnettle: 100
[3]; [16]
  Plant response rating, Deadnettle: 90
[4]; [13]
  Barley, Winter plant response rating: 0
[4]; [14]
  Plant response rating, Barley, Winter: 0
[4]; [15]
  Plant response rating, Barley, Winter: 5
[4]; Preemergence, 31 g ai/ha
  Plant response rating (scale of 0 to 100), Barley, Winter: 0
[4]; [17]
  Plant response rating, Barley, Winter: 0
[4]; [18]
  Plant response rating, Barley, Winter: 0
[4]; [19]
  Plant response rating, Barley, Winter: 0
[4]; [16]
  Plant response rating, Barley, Winter: 0
[5]; [13]
  Blackgrass plant response rating: 15
[5]; [14]
  Plant response rating, Blackgrass: 65
[5]; [15]
  Plant response rating, Blackgrass: 70
[5]; Preemergence, 31 g ai/ha
  Plant response rating (scale of 0 to 100), Blackgrass: 15
[5]; [17]
  Plant response rating, Blackgrass: 30
[5]; [18]
  Plant response rating, Blackgrass: 40
[5]; [19]
  Plant response rating, Blackgrass: 55
[5]; [16]
  Plant response rating, Blackgrass: 20
[6]; [13]
  Radish, Wild plant response rating: 95
[6]; [14]
  Plant response rating, Radish, Wild: 100
[6]; [15]
  Plant response rating, Radish, Wild: 100
[6]; Preemergence, 31 g ai/ha
  Plant response rating (scale of 0 to 100), Radish, Wild: 40
[6]; [17]
  Plant response rating, Radish, Wild: 70
[6]; [18]
  Plant response rating, Radish, Wild: 100
[6]; [19]
  Plant response rating, Radish, Wild: 100
[6]; [16]
  Plant response rating, Radish, Wild: 100
[7]; [13]
  Mustard, Wild plant response rating: 100
[7]; [14]
  Plant response rating, Mustard, Wild: 100
[7]; [15]
  Plant response rating, Mustard, Wild: 100
[7]; Preemergence, 31 g ai/ha
  Plant response rating (scale of 0 to 100), Mustard, Wild: 55
[7]; [17]
  Plant response rating, Mustard, Wild: 35
[7]; [18]
  Plant response rating, Mustard, Wild: 100
[7]; [19]
  Plant response rating, Mustard, Wild: 95
[7]; [16]
  Plant response rating, Mustard, Wild: 100
[8]; [13]
  Field Poppy plant response rating: 100
[8]; [14]
  Plant response rating, Field Poppy: 100
[8]; [15]
  Plant response rating, Field Poppy: 100
[8]; Preemergence, 31 g ai/ha
  Plant response rating (scale of 0 to 100), Field Poppy: 0
[8]; [17]
  Plant response rating, Field Poppy: 95
[8]; [18]
  Plant response rating, Field Poppy: 100
[8]; [19]
  Plant response rating, Field Poppy: 100
[8]; [16]
  Plant response rating, Field Poppy: 100
[9]; [13]
  Foxtail, Green plant response rating: 0
[9]; [14]
  Plant response rating, Foxtail, Green: 55
[9]; [15]
  Plant response rating, Foxtail, Green: 60
[9]; Preemergence, 31 g ai/ha
  Plant response rating (scale of 0 to 100), Foxtail, Green: 15
[9]; [17]
  Plant response rating, Foxtail, Green: 35
[9]; [18]
  Plant response rating, Foxtail, Green: 55
[9]; [19]
  Plant response rating, Foxtail, Green: 100
[9]; [16]
  Plant response rating, Foxtail, Green: 25
[10]; [13]
  Windgrass plant response rating: 10
[10]; [14]
  Plant response rating, Windgrass: 40
[10]; [15]
  Plant response rating, Windgrass: 65
[10]; Preemergence, 31 g ai/ha
  Plant response rating (scale of 0 to 100), Windgrass: 0
[10]; [17]
  Plant response rating, Windgrass: 15
[10]; [18]
  Plant response rating, Windgrass: 50
[10]; [19]
  Plant response rating, Windgrass: 85
[10]; [16]
  Plant response rating, Windgrass: 15
[11]; [20]
  Plant response rating, Waterhemp_RES1: 90
[11]; [21]
  Plant response rating, Waterhemp_RES1: 90
[11]; [22]
  Plant response rating, Waterhemp_RES1: 95
[11]; [23]
  Plant response rating, Waterhemp_RES1: 90
[12]; [20]
  Plant response rating, Waterhemp_RES2: 60
[12]; [21]
  Plant response rating, Waterhemp_RES2: 60
[12]; [22]
  Plant response rating, Waterhemp_RES2: 60
[12]; [23]
  Plant response rating, Waterhemp_RES2: 75
